# Assays:
# RAW 264.7 macrophages [1] = assay: subcellular localization by confocal laser scanning microscopy; type: cell-based; details: for ratio of cytosolic (ER-associated) to nuclear fluorescence: 10 μM, 4 h, living RAW 264.7 macrophages
# From the text: The pro-fluorophore Compounds 1-8 can cause fluorescence in living cells upon reacting with peroxynitrite. The ability of ER-targeted sensors to detect endogenous peroxynitrite during phagocytosis was further investigated by confocal laser scanning microscopy. […] The left panels of FIGS. 7A-7B show the DIC micrographs and the right panels show the confocal laser scanning micrographs. […] When the cells were additionally treated with DNP-modified amino tentagel beads (10 micron) bound to anti-DNP IgG, cellular green fluorescence is observed and localized to the endoplasmic reticulum. In FIG. 7B, the white arrows point at phagocytosed beads. The scale bar in FIG. 7B is 25 microns. The right panel of FIG. 7A is relatively blank (white instead of black), and then fluorescence is seen in the right panel of FIG. 7B, thereby showing that there is localization to the ER by the compounds of the present invention.
# After correcting for differences in brightness, this interpretation was further supported by analysis of cells treated with Compounds 1-8 by flow cytometry.
# Analysis of Subcellular Localization.
# RAW264.7 macrophages were scraped to passage and diluted to 300,000 cells/mL in complete medium. These cells were plated in an ibiTreat-coated 8-well μ-Slide (ibidi, 300 μL of media per well) and incubated at 37° C. overnight. The next day, the wells were washed once with complete media before treatment with fluorescent probes. Fluorescent sensors in DMSO stock solutions were diluted into complete media and added to cells. ER-Tracker Blue-White DPX (ThermoFisher Scientific) was diluted in DMSO to 100 μM followed by 1:1000 dilution with complete media. Labeled tentagel beads were added to cells at 200,000 beads/mL. Cells were incubated for 4 h at 37° C. followed by imaging by confocal microscopy (without washing). Phagocytosed beads were identified by morphology such as compression of the nucleus around the bead and adjacent fluorescence of ER membranes. […] To quantify the ratio of cytosolic to nuclear fluorescence (FIG. 8), Leica LAS X 2.0.1 software was used to define regions of interest (ROI) within the cytosol, nucleus, and cell-free regions. Mean fluorescence per pixel was calculated using Leica LAS X 2.0.1 software and plotted with SD (N=20). ROI from cell-free regions were used to subtract background fluorescence for comparison.
# RAW 264.7 macrophages [2] = assay: detection of peroxynitrite resulting from phagocytosis by flow cytometry; type: cell-based; details: for cellular association (cellular fluorescence per sensor brightness): FIG. 8C; for response of cellular fluorescence to SIN-1: SIN-1 50 μM, HPF 10 μM in HBSS, Fl-B 50 μM in DMEM
# From the text: The ability of the pro-fluorophore Compounds 1-8 to generate cellular fluorescence was studied. The protocol included treating living RAW 264.7 macrophages with pro-fluorophore Compounds 1-8 and quantified cellular fluorescence by flow cytometry (FIGS. 6A-6B). To trigger phagocytosis and production of endogenous peroxynitrite, these cells were additionally treated with chemically-modified amino-tentagel beads. These beads were either covalently derivatized with the fluorophore Pacific Blue, to provide a less immunostimulatory control, or covalently conjugated with DNP and non-covalently bound to anti-DNP IgG, to promote bead phagocytosis as shown in FIG. 9. To provide a spectrally orthogonal marker, lysine residues of the antibody were conjugated to PB to allow labeled beads to be distinguished from cells by flow cytometry. […] Cells were treated (4 h) with sensor Compounds 1-8 (10 μM) and 10-micron amino-tentagel beads modified either with Pacific Blue-SE (Beads-PB) or 2,4-DNP-X-SE. To the DNP-modified beads was additionally added rabbit anti-DNP IgG (Beads/IgG), conjugated to Pacific Blue via lysines, to stimulate phagocytosis.
# The ER-targeting pro-fluorophores were compared with non-ER-targeted sensors of peroxynitrite: hydroxyphenyl fluorescein (HPF) and fluorescein boronate (Fl-B). Since the fluorescence of HPF can be affected by serum proteins, cells were treated with this compound in Hank's balanced salt solution (HBSS). […] In FIG. 6B, the cells were treated with Compound 3 in DMEM media or HBSS and compared with treatment with hydroxyphenyl fluorescein (HPF, 10 μM in HBSS) and fluorescein boronate (Fl-B, 50 μM in DMEM). [SIN-1]=50 μM. [FeTMPyP]=50 μM.
# Detection of Peroxynitrite Resulting from Phagocytosis by Flow Cytometry.
# RAW264.7 macrophages were seeded on a non-treated 96-well plate (USA Scientific) in complete media (40,000 cells, 200 μL per well) 16 h prior to treatment. These cells adhere to treated plastic very strongly, and the use of non-treated plates was required for subsequent release and analysis of cells by flow cytometry. Fluorescent sensors were diluted from DMSO stock solutions into complete media (final concentration of probe=10 μM, 0.5% DMSO). Fluorescein and Compound 3 were added to Hank's Balanced Salt Solution (HBSS, Corning, pH 7.4). Labeled tentagel beads were added to this complete media or HBSS (200,000 beads/mL). The original media was carefully removed from all wells by aspiration and replaced with the treatment media containing beads and sensors (200 μL per well) in triplicate. After incubation of treated cells at 37° C. for 4 h, aqueous propidium iodide (PI, 20 μL, 30 μM, Thermo Fisher Scientific) was added to each well (final concentration of PI=3 μM). A p200 multichannel pipette was used to release the cells from the plate via sheer force. Cellular fluorescence was analyzed by flow cytometry. Viability was determined by gating based on staining of cells with compromised membranes with PI. Tentagel beads take up significant amounts of PI, making them brighter than cells at 690/50 nm. Additionally, labeling of tentagel beads with Pacific Blue makes them brighter than cells when excited at 405 nm, and additional excitation at this wavelength was used to assure that all beads were excluded from gating of live cells. Median values of fluorescence of living cells in the FITC-A channel (525/40 nm) were compared and plotted.
# [3] = sensor 50 nM, PBS pH 7.4, 5 min, 23° C.
# Procedure: Maximal fluorescence emission was measured by fluorescence spectroscopy after treatment for 5 min at 23° C. (PBS, pH 7.4, 0.1% DMSO).
# A normalized DMSO stock solution of Compound 3 in DMSO (50 μM) was diluted 1:1000 with PBS (pH 7.4) to yield a 50 nM solution (0.1% DMSO) in triplicate. RNS and ROS were generated as described below and diluted into the solution in volumes that changed the overall volume by 0.5% or less. These solutions were mixed, incubated at room temperature for 5 min, and transferred to a quartz cell for analysis by fluorescence spectroscopy.
# The concentration of peroxynitrite was measured by absorbance spectroscopy (ε=1670 M^−1cm^−1 at 302 nm in aq. NaOH, 0.1 M). To provide stock solutions, peroxynitrite was diluted with NaOH (aq., 0.1 M). These solutions were diluted 1:1000 into solutions of Compound 3 for analysis. […] The concentration of ClO^− was verified by absorbance spectroscopy (ε=350 M^−1cm^−1 at 209 nm) in water.
# Hydroxyl radical (.OH) was generated using the Fenton reaction (Jia, X., Chen, Q., Yang, Y., Tang, Y., Wang, R., Xu, Y., Zhu, W., and Qian, X. (2016) FRET-Based Mito-Specific Fluorescent Probe for Ratiometric Detection and Imaging of Endogenous Peroxynitrite: Dyad of Cy3 and Cy5, J. Am. Chem. Soc. 138, 10778-10781). […] The concentration of H2O2 was verified by absorbance spectroscopy (ε=43.6 M^−1cm^−1 at 240 nm) in water. […]
# cells in culture = assay: cytotoxicity in culture (FIG. 5); type: cell-based; details: 10 μM, 48 hours in culture
# [4] = limit of detection of peroxynitrite by fluorescence spectroscopy; details: sensor 50 nM in PBS pH 7.4, 0.1% DMSO, 5 min, 23° C.
# Procedure: (PBS, pH 7.4, 0.1% DMSO).
# Determination of the Limit of Detection of Peroxynitrite by Compound 3.
# The concentration of a stock solution of pure peroxynitrite was measured by absorbance spectroscopy and diluted with aq. NaOH (0.1 M) to provide additional stock solutions. […] The detection limit of Compound 3 was determined based on a reported method (Yu, F., Li, P., Wang, B., and Han, K. (2013) Reversible near-infrared fluorescent probe introducing tellurium to mimetic glutathione peroxidase for monitoring the redox cycles between peroxynitrite and glutathione in vivo, J. Am. Chem. Soc. 135, 7674-7680; Shortreed, M., Kopelman, R., Kuhn, M., and Hoyland, B. (1996) Fluorescent fiber-optic calcium sensor for physiological measurements, Anal. Chem. 68, 1414-1418). The fluorescence emission at 526 nm was normalized between the minimum intensity (0 nM peroxynitrite, Fmin) and the maximum intensity (500 nM peroxynitrite, Fmax) using the following equation: (F−Fmin)/(Fmax−Fmin). […]
# [5] = photophysical properties: quantum yields relative to rhodamine 6G in n-octanol, molar extinction coefficients in DMSO; type: physicochemical
# From the text: Optical spectroscopic properties of the pro-fluorophore Compound 3, as a representative probe, and the rhodol product (Compound 9), in n-octanol as a mimic of ER membranes, are shown in FIG. 2.
# The fluorescence emission of Compounds 1-8 was quenched by up to 1800-fold (for Compound 3, Φ=0.0004) compared to Compound 9 (Φ=0.72). However, the brightness of these sensors, calculated as the product of their measured molar extinction coefficients and quantum yields, varied by up to 30-fold (See FIGS. 2A and 2B).
# [6] = cited from earlier work
molecule,measurement,setting,value
Cc1cc(N(C)c2cc3oc4cc(=O)c(F)cc-4c(-c4ccccc4C)c3cc2F)ccc1O [Compound 2],ratio of cytosolic (ER-associated) to nuclear fluorescence,RAW 264.7 macrophages [1],3.7
Cc1ccccc1-c1c2cc(F)c(=O)cc-2oc2cc(N(C)c3cc(C)c(O)c(C)c3)c(F)cc12 [Compound 3],decrease of cellular fluorescence on co-treatment with peroxynitrite decomposition catalyst FeTMPyP,"RAW 264.7 macrophages [2]; IgG-bound beads, FeTMPyP 50 μM",over 50%
same,detection of peroxynitrite upon mild treatment of cells with antibody-opsonized tentagel beads,"RAW 264.7 macrophages [2]; flow cytometry, FIG. 6B",could detect peroxynitrite
same,concentration in cells relative to Compound 5,"RAW 264.7 macrophages [2]; flow cytometry, corrected for brightness, identical conditions (FIG. 8C)",4 fold
same,change in cellular fluorescence upon addition of IgG-coated beads,"RAW 264.7 macrophages [2]; sensor 10 μM, 4 h, Beads/IgG, flow cytometry",10 fold
same,cytosolic fluorescence after addition of antibody-opsonized beads,"RAW 264.7 macrophages [1]; 10 μM sensor, tentagel beads/IgG, confocal microscopy",dramatic increase in localized cytosolic fluorescence
same,ratio of cytosolic (ER-associated) to nuclear fluorescence,RAW 264.7 macrophages [1],6.7
same,fluorescence enhancement on co-treatment with FeTMPyP,"RAW 264.7 macrophages [1]; confocal microscopy, data not shown",substantially reduced
same,accumulation in the ER by co-localization with ER tracker blue-white DPX,RAW 264.7 macrophages [1]; data not shown,confirmed to accumulate in the ER
same,"selectivity for peroxynitrite versus perchlorite, hydroxyl radical, superoxide, peroxides, nitric oxide",[3],highly selective for peroxynitrite
same,"conversion by SIN-1 to Compound 9, analysis by HPLC",HPLC,cleanly convert
same,pseudo-first-order half-time t1/2 of reaction with SIN-1,"buffer, pH 7.4",49 s
same,cytotoxicity,cells in culture,negligible cytotoxicity
same,approximate limit of detection: peroxynitrite giving a 2-fold increase in fluorescence intensity,[4],~40 nM
same,quantum yield Φ,[5],0.0004
Cc1ccccc1-c1c2cc(F)c(=O)cc-2oc2cc(N(C)c3cc(C(C)(C)C)c(O)c(C(C)(C)C)c3)c(F)cc12 [Compound 4],cellular association (cellular fluorescence per sensor brightness),RAW 264.7 macrophages [2]; flow cytometry,lower cellular association than Compound 2
COc1cc(N(C)c2cc3oc4cc(=O)c(F)cc-4c(-c4ccccc4C)c3cc2F)ccc1O [Compound 5],ratio of cytosolic (ER-associated) to nuclear fluorescence,RAW 264.7 macrophages [1],2.6
Cc1ccccc1-c1c2cc(F)c(=O)cc-2oc2cc(N(C)c3cc(Cl)c(O)c(Cl)c3)c(F)cc12 [Compound 8],cellular association (cellular fluorescence per sensor brightness),RAW 264.7 macrophages [2]; flow cytometry,lowest cellular association
CNc1cc2oc3cc(=O)c(F)cc-3c(-c3ccccc3C)c2cc1F [Compound 9],accumulation in the ER by co-localization with ER tracker blue-white DPX,RAW 264.7 macrophages [1]; data not shown,confirmed to accumulate in the ER
same,time to extensive loss of cellular fluorescence after washing cells once with complete media (efflux),RAW 264.7 macrophages [1]; data not shown,10 to 20 min
same,quantum yield Φ,[5],0.72
"O=C1OC2(c3ccc(O)cc3Oc3cc(Oc4ccc(O)cc4)ccc32)c2ccccc21 (stereo not drawn) [HPF, hydroxyphenyl fluorescein, reference compound]",response of cellular fluorescence to SIN-1,RAW 264.7 macrophages [2],responded to SIN-1 and could increase cellular fluorescence
O=NOO [peroxynitrous acid],pKa,[6],6.84
"fluorescein boronate [Fl-B, reference compound]",response of cellular fluorescence to SIN-1,RAW 264.7 macrophages [2],responded to SIN-1 and could increase cellular fluorescence
